The source made the active and inactive calls. No cut-off for these calls is given here.
How the values were obtained:
Hepatitis B virus [1] = assay: Antiviral activity against HBV infected in human HePAD38 cells assessed as reduction in intracellular core HBV DNA level at 20 uM incubated for 6 days by qPCR analysis relative to control; format: functional; parameters: scale not given: the % may be the effect or the level left; conditions: time 6 day
Hepatitis B virus [2] = assay: Antiviral activity against HBV infected in human HePAD38 assessed as reduction on HBeAg level at 20 uM by ELISA analysis relative to control; format: functional; parameters: scale not given: the % may be the effect or the level left
Hepatitis B virus [3] = assay: Antiviral activity against HBV infected in human HePAD38 assessed as reduction on HBsAg level at 20 uM by ELISA analysis relative to control; format: functional; parameters: scale not given: the % may be the effect or the level left
Hepatitis B virus [4] = assay: Antiviral activity against HBV infected in human HePAD38 cells assessed as reduction of capsid associated HBV DNA; format: functional, organism-based
[5] = Cytotoxicity against human HepAD38 cells assessed as reduction in cell viability incubated for 6 days by CCK-8 assay; format: functional; conditions: HePAD38, 144 h, time 6 day
[6] = Selectivity index, ratio of CC50 for cytotoxicity against human HepAD38 cells to EC50 for antiviral activity against HBV infected in human HePAD38 cells; format: toxicity, cell-based; conditions: read-out: Ratio CC50/EC50
Hepatitis B virus [7] = assay: Antiviral activity against HBV infected in human HePAD38 cells assessed as decay of viral capsid protein by agarose gel electrophoresis-based assay; format: functional, organism-based
Hepatitis B virus [8] = assay: Antiviral activity against HBV infected in human HePAD38 cells assessed as decay of viral core protein by agarose gel electrophoresis-based assay; format: functional, organism-based
Hepatitis B virus [9] = assay: Antiviral activity against HBV infected in human HePAD38 cells assessed as reduction in capsid formation upto 10 uM measured for 6 days by agarose gel electrophoresis-based assay; format: functional, organism-based; conditions: time 6.0 day
Hepatitis B virus [10] = assay: Antiviral activity against HBV infected in human HePAD38 cells assessed as reduction in […] level upto10 uM measured for 6 days by agarose gel electrophoresis-based assay; format: functional, organism-based; conditions: dose 10.0 µM, time 6.0 day
Hepatitis B virus [11] = assay: Antiviral activity against HBV infected in human HePAD38 cells assessed as reduction in capsid formation at 0.625 to 10 uM measured for 6 days by agarose gel electrophoresis-based assay; format: functional, organism-based; conditions: dose 0.625-10 µM, time 6.0 day
Hepatitis B virus [12] = assay: Antiviral activity against HBV infected in human HePAD38 cells assessed as reduction in capsid formation measured for 6 days by agarose gel electrophoresis-based assay; format: functional, organism-based; conditions: time 6.0 day
Hepatitis B virus [13] = assay: Antiviral activity against HBV infected human HePAD38 cells assessed as reduction in HBeAg level in cell supernatant at 0.625 to 10 uM and measured after 6 days by ELISA analysis; format: functional, organism-based; conditions: dose 0.625-10 µM, time 6.0 day
Hepatitis B virus [14] = assay: Antiviral activity against HBV infected human HePAD38 cells assessed as reduction in HBsAg level in cell supernatant at 0.625 to 10 uM and measured after 6 days by ELISA analysis; format: functional, organism-based; conditions: dose 0.625-10 µM, time 6.0 day
Hepatitis B virus [15] = assay: Antiviral activity against HBV infected in human HePAD38 cells assessed as reduction in intracellular 3.5 Kb HBV RNA level at 0.625 to 10 uM and incubated for 6 days by Northern blot analysis; format: functional, organism-based; conditions: dose 0.625-10 µM, time 6.0 day
Hepatitis B virus [16] = assay: Antiviral activity against HBV infected in human HePAD38 cells assessed as reduction in intracellular 3.5 Kb HBV RNA level at 0.625 to 10 uM and incubated for 6 days by real-time PCR analysis; format: functional, organism-based; conditions: dose 0.625-10 µM, time 6.0 day
Hepatitis B virus [17] = assay: Antiviral activity against HBV infected in human HePAD38 cells assessed as reduction in HBV core DNA level and incubated for 6 days by southern blot analysis; format: functional, organism-based; conditions: dose 0.625-10 µM, time 6.0 day
Hepatitis B virus [18] = assay: Antiviral activity against HBV infected in human HePAD38 cells assessed as reduction in encapsidated pgRNA at 0.625 to 10 uM incubated for 6 days by northern blot analysis; format: functional, organism-based; conditions: dose 0.625-10 µM, time 6.0 day
Hepatitis B virus [19] = assay: Effect on capsid morphology in human HePAD38 cells infected with Hepatitis B virus at 5 uM incubated for 6 days by immunofluorescence analysis; format: functional, organism-based; conditions: time 6.0 day
Hepatitis B virus [20] = assay: Antiviral activity against HBV infected in human HepAD38 cells assessed as effect on capsid morphology at 20 uM incubated for 3 to 7 days by transmission electron microscopy; format: functional, organism-based; conditions: time 3-7 day
Hepatitis B virus [21] = assay: Antiviral activity against HBV genotype A infected in human HepG2 cells assessed as inhibition of viral replication; format: functional, organism-based
Hepatitis B virus [22] = assay: Antiviral activity against HBV genotype B infected in human HepG2 cells assessed as inhibition of viral replication; format: functional, organism-based
Hepatitis B virus [23] = assay: Antiviral activity against HBV genotype C infected in human HepG2 cells assessed as inhibition of viral replication; format: functional, organism-based
Hepatitis B virus [24] = assay: Antiviral activity against HBV genotype D infected in human HepG2 cells assessed as inhibition of viral replication; format: functional, organism-based
Hepatitis B virus [25] = assay: Antiviral activity against wild type HBV infected in human HepG2 cells assessed as inhibition of viral replication; format: functional, organism-based
Hepatitis B virus [26] = assay: Antiviral activity against ETV-resistant HBV infected in human HepG2 cells assessed as inhibition of viral replication; format: functional, organism-based
Hepatitis B virus [27] = assay: Antiviral activity against HBV infected in transgenic C57BL/6 mouse assessed as inhibition of viral replication by measuring log reduction in serum HBV DNA level at 100 mg/kg, po BID measured for 12 days by RT-PCR analysis; format: functional; conditions: time 12 day
Hepatitis B virus [28] = assay: Antiviral activity against HBV infected in transgenic C57BL/6 mouse assessed as inhibition of viral replication by measuring log reduction in serum HBV DNA level at 30 mg/kg, po BID measured for 12 days by RT-PCR analysis; format: functional; conditions: time 12 day
Hepatitis B virus [29] = assay: Antiviral activity against HBV infected in transgenic C57BL/6 mouse assessed as inhibition of viral replication by measuring log reduction in liver HBV DNA level at 30 mg/kg, po BID measured for 12 days by RT-PCR analysis; format: functional; conditions: time 12 day
Hepatitis B virus [30] = assay: Antiviral activity against HBV infected in transgenic C57BL/6 mouse assessed as inhibition of viral replication by measuring log reduction in liver HBV DNA level at 100 mg/kg, po BID measured for 12 days by RT-PCR analysis; format: functional; conditions: time 12 day
Hepatitis B virus [31] = assay: Antiviral activity against HBV infected in transgenic C57BL/6 mouse assessed as reduction in intrahepatic 3.5 kb HBV RNA level at 100 mg/kg, po BID measured for 12 days by RT-PCR analysis; format: functional, organism-based; conditions: time 12.0 day
Hepatitis B virus [32] = assay: Antiviral activity against HBV infected in transgenic C57BL/6 mouse assessed as reduction in intrahepatic 3.5 kb HBV RNA level at 30 mg/kg, po BID measured for 12 days by RT-PCR analysis; format: functional, organism-based; conditions: time 12.0 day
Hepatitis B virus [33] = assay: Antiviral activity against HBV infected in transgenic C57BL/6 mouse assessed as reduction in serum HBeAg level at 30 mg/kg, po BID measured for 12 days by ELISA analysis; format: functional, organism-based; conditions: time 12.0 day
Hepatitis B virus [34] = assay: Antiviral activity against HBV infected in transgenic C57BL/6 mouse assessed as reduction in serum HBeAg level at 100 mg/kg, po BID measured for 12 days by ELISA analysis; format: functional, organism-based; conditions: time 12.0 day
Hepatitis B virus [35] = assay: Antiviral activity against HBV infected in transgenic C57BL/6 mouse assessed as reduction in serum HBsAg level at 100 mg/kg, po BID measured for 12 days by ELISA analysis; format: functional, organism-based; conditions: time 12.0 day
Hepatitis B virus [36] = assay: Antiviral activity against HBV infected in transgenic C57BL/6 mouse assessed as reduction in serum HBsAg level at 30 mg/kg, po BID measured for 12 days by ELISA analysis; format: functional, organism-based; conditions: time 12.0 day
[37] = Hepatotoxicity in C57BL/6 mouse assessed as effect on AST level in serum at 30 mg/kg, po BID measured for 12 days; format: toxicity, organism-based; conditions: in vivo, 288 h, time 12 day
[38] = Hepatotoxicity in C57BL/6 mouse assessed as effect on AST level in serum at 100 mg/kg, po BID measured for 12 days; format: toxicity, organism-based; conditions: in vivo, 288 h, time 12 day
[39] = Hepatotoxicity in C57BL/6 mouse assessed as effect on ALT level in serum at 30 mg/kg, po BID measured for 12 days; format: toxicity, organism-based; conditions: in vivo, 288 h, time 12 day
[40] = Hepatotoxicity in C57BL/6 mouse assessed as effect on ALT level in serum at 100 mg/kg, po BID measured for 12 days; format: toxicity, organism-based; conditions: in vivo, 288 h, time 12 day
[41] = Toxicity in C57BL/6 mouse assessed as histopathological changes in liver at 100 mg/kg, po measured after 12 days by H and E staining analysis; format: organism-based; conditions: in vivo, 288 h, time 12 day
[42] = Toxicity in C57BL/6 mouse assessed as histopathological changes in liver at 30 mg/kg, po measured after 12 days by H and E staining analysis; format: organism-based; conditions: in vivo, 288 h, time 12 day

For `CCOC(=O)c1c(S(=O)(=O)N2CCC[C@H](C(=O)Nc3ccc(F)c(C)c3)C2)c(C)n(CC(F)(F)F)c1C`, the Activity (Hepatitis B virus [1]) was 12%, the Activity (Hepatitis B virus [2]) was 36.9% and the Activity (Hepatitis B virus [3]) was 101.8%. For the same compound, the EC50 (Hepatitis B virus [4]) was 110 nM, the CC50 [5] was 82300 nM and the selectivity ratio [6] was 775. The Activity (Hepatitis B virus [7]) was “inactive”, the Activity (Hepatitis B virus [8]) was “inactive” and the Activity (Hepatitis B virus [9]) was “Active”. The Activity (Hepatitis B virus [10]) was “Active”, the Activity (Hepatitis B virus [11]) was “Active” and the Activity (Hepatitis B virus [12]) was “Dose-Dependent Effect”. For the same compound, the Activity (Hepatitis B virus [13]) was “Active”, the Activity (Hepatitis B virus [14]) was “inactive” and the Activity (Hepatitis B virus [15]) was “Active”. The Activity (Hepatitis B virus [16]) was “Active”, the Activity (Hepatitis B virus [17]) was “Dose-Dependent Effect” and the Activity (Hepatitis B virus [18]) was “Active”. The Activity (Hepatitis B virus [19]) was “inactive”, the Activity (Hepatitis B virus [20]) was “inactive” and the EC50 (Hepatitis B virus [21]) was 130 nM. For the same compound, the EC50 (Hepatitis B virus [22]) was 120 nM, the EC50 (Hepatitis B virus [23]) was 160 nM and the EC50 (Hepatitis B virus [24]) was 240 nM. For the same compound, the EC50 (Hepatitis B virus [25]) was 3.1 nM, the EC50 (Hepatitis B virus [26]) was 7.2 nM and the “log(activity)” value (Hepatitis B virus [27]) was 2.42. For the same compound, the “log(activity)” value (Hepatitis B virus [28]) was 1.37, the “log(activity)” value (Hepatitis B virus [29]) was 0.43 and the “log(activity)” value (Hepatitis B virus [30]) was 0.98. The Activity (Hepatitis B virus [31]) was “Active”, the Activity (Hepatitis B virus [32]) was “Active” and the Activity (Hepatitis B virus [33]) was “Active”. For the same compound, the Activity (Hepatitis B virus [34]) was “Active”, the Activity (Hepatitis B virus [35]) was “inactive” and the Activity (Hepatitis B virus [36]) was “inactive”. The Activity [37] was “Non-Toxic”, the Activity [38] was “Non-Toxic” and the Activity [39] was “Non-Toxic”. For the same compound, the Activity [40] was “Non-Toxic”, the Activity [41] was “Non-Toxic” and the Activity [42] was “Non-Toxic”.

Reference: ChEMBL document CHEMBL5331101, “Synthesis and evaluation of N-sulfonylpiperidine-3-carboxamide derivatives as capsid assembly modulators inhibiting HBV in vitro and in HBV-transgenic mice” (Eur J Med Chem, 2023)
